Data published in patent US20230272464A1, “MODIFIED NUCLEOTIDES AND METHODS FOR DNA AND RNA POLYMERIZATION AND SEQUENCING” (SeNA Research, Incorporated, priority 2019, published 2023).

Experiments:
Format in all cases: biochemical
[1] = molecular target: DNA polymerase (Escherichia coli, UniProt P00582); experiment: Misincorporation of 2-Se-TTP: extension with each dNTP except dCTP; conditions: dCTP not present; up to 30 minutes
Method: Experiments to examine the misincorporation of 2-Se-TTP were conducted as follows. Broadly, enzymatic extension reactions were performed using each naturally occurring dNTP except dCTP, knowing that misincorporations of TTP in place of dCTP are commonly the cause of decreased fidelity in DNA replications.

[2] = molecular target: Klenow fragment of DNA polymerase I (Escherichia coli, UniProt P00582); experiment: Polymerization using TTP or 2-Se-TTP (denatured PAGE)
Klenow fragment of DNA polymerase I, sequence (P00582 324-928): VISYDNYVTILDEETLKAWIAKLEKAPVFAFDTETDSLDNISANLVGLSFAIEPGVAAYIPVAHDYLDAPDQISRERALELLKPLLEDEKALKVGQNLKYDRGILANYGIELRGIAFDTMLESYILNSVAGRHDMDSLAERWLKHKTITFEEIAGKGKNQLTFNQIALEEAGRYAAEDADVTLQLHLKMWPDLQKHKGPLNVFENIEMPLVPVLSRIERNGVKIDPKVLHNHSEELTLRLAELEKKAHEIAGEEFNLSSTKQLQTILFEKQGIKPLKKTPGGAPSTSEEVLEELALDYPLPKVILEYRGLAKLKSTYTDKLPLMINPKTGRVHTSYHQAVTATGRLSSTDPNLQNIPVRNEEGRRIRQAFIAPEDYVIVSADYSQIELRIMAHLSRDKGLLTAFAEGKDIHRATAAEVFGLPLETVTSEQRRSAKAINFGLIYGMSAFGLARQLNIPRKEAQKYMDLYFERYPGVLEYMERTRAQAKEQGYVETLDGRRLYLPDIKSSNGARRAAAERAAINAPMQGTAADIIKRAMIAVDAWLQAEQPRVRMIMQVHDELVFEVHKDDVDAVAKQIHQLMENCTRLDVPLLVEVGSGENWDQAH
From the text: The 30-nt DNA products made from the polymerization using TTP and 2-Se-TTP refer to full-length product in FIGS. 2B and 2C, respectively. […] Results of thermal dynamic calculation (FIG. 18) are consistent with the denatured PAGE. The initial reaction rate ratio (TTP vs 2-Se-TTP) was around 1.24.

[3] = PCR of two target fragments with added 2-Se-TTP (agarose gel); conditions: target fragments 268bp, 405bp; 2-Se-TTP additionally added
From the text: No bands were found in two blank groups. Thus, incorporation of 2-Se-TTP can effectively reduce the non-specific bands in PCR.

[4] = molecular target: Taq DNA polymerase (Thermus aquaticus, UniProt P19821); experiment: PCR with dNTPαS I: suppression of nonspecific product
Taq DNA polymerase, sequence (P19821 whole entry): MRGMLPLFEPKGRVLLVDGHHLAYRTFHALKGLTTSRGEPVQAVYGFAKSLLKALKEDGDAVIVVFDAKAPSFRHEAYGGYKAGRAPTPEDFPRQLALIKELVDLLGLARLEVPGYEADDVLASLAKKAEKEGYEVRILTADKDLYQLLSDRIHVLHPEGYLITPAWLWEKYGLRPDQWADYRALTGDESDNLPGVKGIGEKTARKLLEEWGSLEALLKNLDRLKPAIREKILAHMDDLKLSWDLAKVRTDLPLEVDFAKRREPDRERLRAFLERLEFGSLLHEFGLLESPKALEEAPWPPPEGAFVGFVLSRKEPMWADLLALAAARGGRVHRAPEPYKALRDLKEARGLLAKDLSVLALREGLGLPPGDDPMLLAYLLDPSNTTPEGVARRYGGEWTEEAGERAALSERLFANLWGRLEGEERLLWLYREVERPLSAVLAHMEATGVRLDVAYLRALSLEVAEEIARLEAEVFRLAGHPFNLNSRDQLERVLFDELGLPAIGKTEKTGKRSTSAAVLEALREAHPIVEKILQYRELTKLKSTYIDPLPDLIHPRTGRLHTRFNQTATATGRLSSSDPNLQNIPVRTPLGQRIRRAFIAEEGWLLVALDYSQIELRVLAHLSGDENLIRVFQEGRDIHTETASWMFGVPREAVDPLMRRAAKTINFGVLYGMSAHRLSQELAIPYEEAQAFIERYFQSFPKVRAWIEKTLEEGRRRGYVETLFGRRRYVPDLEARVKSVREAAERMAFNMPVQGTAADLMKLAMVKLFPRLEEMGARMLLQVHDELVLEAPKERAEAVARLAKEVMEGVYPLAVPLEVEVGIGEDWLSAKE
From the text: Compared to Bst DNA polymerase, Taq DNA polymerase is used much more widely, such as in polymerase chain reaction (PCR).
To test universality of suppression effect of dNTPαS I on nonspecific product, we checked 5 new pairs of primers (primer pair a, b, c, d, e) and 3 types of templates (plasmid, total human cDNA and human genome) with native dNTPs or S-modified dNTPs (FIG. 13). […] Further, S-dNTP can inhibit nonspecific amplification and increase specific product when amplifying simple plasmid template (FIG. 13B). Furthermore, when amplifying complex template (cDNA or genome), reactions using S-dNTP could exact specific product which can not be synthesized using all native dNTPs (FIG. 13B).

[5] = plasmid and total cDNA templates

DNA polymerase, sequence (P00582 324-928): as the sequence (P00582 324-928) above

SMILES	misincorporation in place of dCTP (full-length product) [1]	suppression of nonspecific product in PCR [4, 5]	other results
Cc1cn([C@H]2C[C@H](O)[C@@H](COP(=O)(O)OP(=O)(O)OP(=O)(O)O)O2)c(=O)[nH]c1=O [TTP, reference compound]	incorporated into the DNA primer sequence in a significant amount		
Cc1cn([C@H]2C[C@H](O)[C@@H](COP(=O)(O)OP(=O)(O)OP(=O)(O)O)O2)c(=[Se])[nH]c1=O [Compound 2-Se-TTP, 2-Se-dTTP]	little to no full-length product		initial reaction rate ratio (TTP vs 2-Se-TTP) ([2]; Klenow fragment): around 1.24; recognition by the Klenow fragment ([2]; compared with TTP): relatively well recognized; bands in PCR (nonspecific amplification) [3]: clean and specific bands
Nc1ccn([C@H]2C[C@H](O)[C@@H](COP(O)(=S)OP(=O)(O)OP(=O)(O)O)O2)c(=O)n1 (some centres unmarked) [dCTPαS I]		suppressed nonspecific product nearly completely	
Nc1nc2c(ncn2C2CC(O)C(COP(O)(=[Se])OP(=O)(O)OP(=O)(O)O)O2)c(=O)[nH]1 (centres unmarked) [dGTPαSe I]		suppressed nonspecific product nearly completely	
Nc1ccn([C@H]2C[C@H](O)[C@@H](COP(O)(=S)OP(=O)(O)OP(=O)(O)O)O2)c(=O)n1 (some centres unmarked) [S-dCTP]			suppression of nonspecific product in PCR ([4]; 5 primer pairs, plasmid, total human cDNA and human genome templates): nearly completely suppressed
